Reference: patent US6573258B2, “Photodynamic porphyrin antimicrobial agents” (Frontier Scientific, Inc., priority 2000, dated 2003)

Assays:
[1] = Fluorescence quantum yields; type: physicochemical; settings: for ΦF (PBS), fluorescence quantum yield: in PBS; for ΦF (SDS), fluorescence quantum yield: in aqueous 2% SDS
Procedure: Ground-state absorption spectra of the porphyrins (ca. 5 μM in phosphate buffered saline (PBS, pH=7.4) were recorded with a Lambda 5 Perkin-Elmer spectrophotometer. Fluorescence spectra, corrected for the instrumental response, were recorded with a Perkin-Elmer (model LS) or a Spex (Fluorolog F112) spectrofluorimeter. Fluorescence quantum yields ((IF) of the porphyrin derivatives in PBS and in water containing 2% sodium dodecylsulfate (a detergent, hereinafter “SDS”) were determined by measuring the area of the emission spectrum (600-800 nm range, excitation at 560 nm) and using tetra-n-propylporphycene in toluene as a reference (ΦF=0.38). Braslavsky et al, J. Photochem. Photobiol. B: Biol., 40:191-198 (1997). In all cases, the absorbance of the sample and the reference solution were kept below 0.1 at the excitation wavelength to minimize inner filter effects.

[2] = Photosensitized photooxidation of NATA; settings: 10 μM NATA; for ΦSDS × 10^3, quantum yield for photo-oxidation of NATA: aqueous 2% SDS; for ΦPBS × 10^3, quantum yield for photo-oxidation of NATA: phosphate buffered solution
Procedure: The photosensitizing activity of the various porphyrins was tested by measuring their efficiency in promoting the photooxidation of N-acetyl-L-tryptophanamide (NATA, Aldrich Chem. Co.) as a model biological substrate. Toward this aim, 10 μM NATA in PBS or in water containing 2% SDS was irradiated in the presence of 5 μM porphyrin. The irradiations were performed with 515±10 nm-light isolated by means of an interference filter (Balzers, Liechtenstein), while the solution (2 ml) was magnetically stirred in a quartz cuvette of 1-cm optical path and kept at 25° C. The photosensitized modification of NATA was followed by measuring the decrease in the intensity of its fluorescence emission spectrum (300-450 nm) upon excitation with 290 nm-light at various irradiation times. Plots of in F°/F (where F° and F represent the fluorescence intensity at time 0 and t, respectively) vs. the irradiation time allowed the first-order rate constants of the photo-process to be derived.
The intensity of the incident light was measured by using Aberchrome 999P in toluene as an actinometer. Heller, EPA Newslett., 29:49-60 (1987). This parameter was used to calculate the quantum yields of NATA photooxidation sensitized by the different porphyrins.

[3] = Triplet state properties by laser flash photolysis; type: physicochemical; settings: phosphate-buffered solution; for φT, triplet quantum yield: ε920 estimated by total depletion method
Procedure: Laser flash photolysis experiments were carried out by use of the setup previously described in Gomer, et al., with excitation wavelengths of 355 and 420 nm. Gorner, et al., Photoinduced electron transfer between styrylanthracenes and electron donors and acceptors in acetonitrile, J. Chem. Soc. Faraday Trans., vol. 88, pp. 29-34 (1992).
The transient spectra of the porphyrins in buffer solutions were recorded upon laser flash photolysis excitation at 355 and 420 nm. […] The decay (growth) of the signal (bleaching) occurred according to first-order kinetics and led to a complete recovery of the ground state with a lifetime of 91 μs. […] This also allowed the triplet quantum yield (φT) to be determined (see Table 3), after calibration of the experimental setup by use of an optically-matched solution of benzophenone in acetonitrile.

[4] = system: E. coli cells; test: Growth inhibition after 5 min incubation with porphyrin and white-light irradiation; type: cell-based, Escherichia coli
[5] = system: E. coli cells; test: Decrease of cell survival (colony counting) after white-light irradiation; type: cell-based, Escherichia coli; settings: 5 min dark incubation, 15 min white light (150 mW/cm^2)
Procedure: (§1) Escherichia coli strain O4 (wild type), and methycillin-resistant Staphylococcus aureus, strain MRSA 110, were grown aerobically at 37° C. in brain heart infusion broth (BHI, Difco, Detroit, Mich.). The cells in the stationary phase of growth were harvested by centrifugation (2,000 g for 15 min) of the broth cultures, washed twice with 10 mM PBS at pH=7.4, containing 2.7 mM KCl and 0.14 M NaCl, and suspended in PBS at a density of 10^8-10^9 cells/ml (absorbance of about 0.7 at 650 nm). Aliquots of 5 ml of the cell suspension were incubated with 1 μM porphyrins for 5 min in the dark at room temperature. After incubation the suspensions were centrifuged and the cell pellets were collected immediately or washed with PBS and centrifuged again for one or three times.
(§2) The toxic effects of T4MPyP and its analogues on E. coli and S. aureus cells were evaluated by measuring the extent of growth inhibition (bacteriostatic effect) and reduction of survival (cytocidal/bacteriocidal effect) following treatment with porphyrin in the dark or upon light exposure.
(§3) In all cases, 5 ml of the cell suspension (10^8-10^9 cells/ml) were incubated for 5 min in the dark at room temperature with the selected photosensitizer at concentrations ranging between 0.5 and 10 μM. After dark-incubation, some of the cell samples were irradiated with white light (150 mW/cm^2). During irradiation, (up to 30 min) the cells were kept at 37° C. and magnetically stirred. The treated and untreated control cells were diluted with BHI and maintained at 37° C. while the absorbance of the suspension at 650 nm was monitored at predetermined time periods for determining growth curves. The percent of growth inhibition in the treated cells was calculated by the following equation: […]
(§4) where AX, and AC are the absorbances measured after 3 h incubation, respectively, for the treated and control cell suspensions, respectively, while A0 represents the initial absorbance and the AC is that of the control cell suspension after 5 hours incubation. Cell survival was determined by plating serially diluted aliquots of treated and untreated cells on brain heart agar and counting the number of colonies after 18-24 h incubation at 37° C.

[6] = system: S. aureus cells; test: Growth inhibition after 5 min incubation with porphyrin and white-light irradiation; type: cell-based, Staphylococcus aureus
Procedure: The abilities of various examples of the porphyrins of the instant invention to kill Gram-negative and Gram-positive bacteria were tested against that of T4MPyP. Each of the compounds was incubated with E. coli and S. aureus cells for 5 minutes, following which the samples were irradiated with white light for varying lengths of time.
as §1, §2
[…] After dark-incubation, some of the cell samples were irradiated with white light (150 mW/cm^2). During irradiation, (up to 30 min) the cells were kept at 37° C. and magnetically stirred. The treated and untreated control cells were diluted with BHI and maintained at 37° C. while the absorbance of the suspension at 650 nm was monitored at predetermined time periods for determining growth curves. The percent of growth inhibition in the treated cells was calculated by the following equation:
as §4

[7] = Fluorescence decay times (phase-shift method); type: physicochemical; settings: ca. 5 μM, air-equilibrated buffer pH 7.4, λexc = 420 nm, λem > 600 nm
Procedure: Fluorescence decay times of the porphyrin samples were measured by means of a Spex Fluorolog-τ2 spectrofluorimeter based on the phase-shift method. The frequency response curves (phase-shift and demodulation ratio vs. frequency) were globally analyzed.

[8] = Photostability (photobleaching) under white light; type: physicochemical; settings: 1 μM in PBS
Procedure: The photostability of the porphyrins was determined in PBS upon illumination of […] solutions with white light (400-800 nm) isolated from the emission of a quartz-halogen lamp equipped with UV and infrared filters (Teclas, Lugano, Switzerland). The lamp was operated at a fluence rate of 150 mW/cm^2. During irradiation, the solution was magnetically stirred and kept at 37° C. The concentration of the porphyrin samples was monitored spectrophotometrically at different irradiation times and the photostability was expressed as the percent residual absorbance referred to the absorbance measured prior to irradiation.

[9] = system: S. aureus cells; test: Dark toxicity of porphyrins on bacteria cells; type: cell-based, Staphylococcus aureus; settings: 10 μM, 5 min incubation in the dark
Procedure: as §2, §3, §4

[10] = system: S. aureus cells; test: Binding of porphyrins to bacteria cells; type: cell-based, Staphylococcus aureus; settings: S. aureus, 5 min incubation, 1 μM porphyrin, three PBS washings
Procedure: as §1
(§5) The amount of cell-bound porphyrins was determined in the pellets after resuspension and overnight-incubation in 2% aqueous SDS. The porphyrin concentration in the cell lysate was determined by measuring the intensity of red fluorescence (600-750 nm) emitted after excitation at 420 nm and interpolating the data on a calibration plot obtained with known porphyrin concentrations. The protein content of the cell samples was determined by the method of Lowry (Lowry et al., J. Biol. Chem., 193:265-275 (1951)) and was used to express the amount of porphyrin bound to the cells as nanomoles of porphyrin/mg of protein.

[11] = system: E. coli cells; test: Dark toxicity of porphyrins on bacteria cells; type: cell-based, Escherichia coli; settings: 10 μM, 5 min incubation in the dark
Procedure: as §2, §3, §4

[12] = system: E. coli cells; test: Binding of porphyrins to bacteria cells; type: cell-based, Escherichia coli; settings: 5 min incubation, 1 μM porphyrin, three PBS washings
Procedure: as §1, §5

[13] = 1 μM, incubated 5 min, white light 5 min
[14] = Table 5: 1 μM, 5 min incubation, 5 min white light (150 mW/cm^2)
[15] = 10 μM, incubated 5 min, white light 5 min
[16] = 10 μM, incubated 5 min, white light 15 min
[17] = Table 5: 10 μM, 5 min incubation, 5 min white light (150 mW/cm^2)

CCCCCCCCCCCCCCCCCCCCCC[n+]1ccc(-c2c3nc(c(-c4cc[n+](C)cc4)c4ccc([nH]4)c(-c4cc[n+](C)cc4)c4nc(c(-c5cc[n+](C)cc5)c5ccc2[nH]5)C=C4)C=C3)cc1.Cl.Cl.[Cl-].[Cl-].[Cl-].[Cl-] [Porphyrin C22, 5-(4-N-docosanyl)-10,15,20-tris(4-N-methylpyridyl)-21H,23H-porphine tetrachloride dihydrochloride salt]
ΦF (PBS), fluorescence quantum yield [1]: 0.001 | ΦF (SDS), fluorescence quantum yield [1]: 0.029 | ΦSDS × 10^3, quantum yield for photo-oxidation of NATA [2]: 0.83 ± 0.08 | ΦPBS × 10^3, quantum yield for photo-oxidation of NATA [2]: below our detection limits | λmin of transient spectrum [3]: 420 nm | φ×ε920 [3]: <122 M⁻¹ cm⁻¹ | τ^air, triplet lifetime [3]: 0.1 μs | φT, triplet quantum yield [3]: <0.08 | Growth inhibition (%) E. coli [4, 13]: 2.7% | Growth inhibition (%) E. coli ([4]; 1 μM, incubated 5 min, white light 30 min): 18.5% | Growth inhibition (%) E. coli [4, 14]: 3% | DECREASE OF SURVIVAL (log) ([5]; 1 μM porphyrin): +0.22 ± 0.07 log | DECREASE OF SURVIVAL (log) ([5]; 10 μM porphyrin): −1.94 ± 0.28 log | Growth inhibition (%) S. aureus [6, 13]: 69.7% | Growth inhibition (%) S. aureus ([6]; 1 μM, incubated 5 min, white light 10 min): 90.2% | Growth inhibition (%) S. aureus ([6]; Table 5: 0.5 μM, 5 min incubation, 5 min white light (150 mW/cm^2)): 27% | Growth inhibition (%) S. aureus [6, 14]: 70% | A2, relative weight of slow component [7]: 73% | τ1, fluorescence decay time of fast component [7]: 0.5 ns | τ2, fluorescence decay time of slow component [7]: 5.9 ns | t^1/2 of initial fast photodegradation phase [8]: 6.5 min

C[n+]1ccc(-c2c3nc(c(-c4cc[n+](C)cc4)c4ccc([nH]4)c(-c4cc[n+](C)cc4)c4nc(c(-c5cc[n+](C)cc5)c5ccc2[nH]5)C=C4)C=C3)cc1.Cc1ccc(S(=O)(=O)[O-])cc1.Cc1ccc(S(=O)(=O)[O-])cc1.Cc1ccc(S(=O)(=O)[O-])cc1.Cc1ccc(S(=O)(=O)[O-])cc1 [Porphyrin T4MPyP, Meso-tetra(N-methyl-4-pyridyl)porphine tetratosylate, reference compound]
ΦF (PBS), fluorescence quantum yield [1]: 0.017 | ΦF (SDS), fluorescence quantum yield [1]: 0.031 | ΦSDS × 10^3, quantum yield for photo-oxidation of NATA [2]: 0.64 ± 0.08 | ΦPBS × 10^3, quantum yield for photo-oxidation of NATA [2]: 0.77 ± 0.21 | λmax of transient spectrum [3]: 480 nm | λmin of transient spectrum [3]: 425 nm | φ×ε920 [3]: 6814 M⁻¹ cm⁻¹ | τ^N2, triplet lifetime ([3]; N2): 91 μs | τ^air, triplet lifetime [3]: 14 μs | φT, triplet quantum yield [3]: 0.73 | inhibition of bacterial cell growth in the dark [9]: barely detectable inhibition | initially bound porphyrin retained after three washings [10]: 16% | Growth inhibition (%) E. coli [4, 15]: 28.7% | Growth inhibition (%) E. coli [4, 16]: 82.8% | Growth inhibition (%) E. coli [4, 17]: 29% | concentration photoinducing significant bacteriostatic and bactericidal action ([4]; both cell strains (S. aureus and E. coli)): 10 µM | DECREASE OF SURVIVAL (log) ([5]; 1 μM porphyrin): +0.28 log | DECREASE OF SURVIVAL (log) ([5]; 10 μM porphyrin): −1.82 ± 0.82 log | Growth inhibition (%) S. aureus [6, 15]: 96.4% | Growth inhibition (%) S. aureus [6, 16]: 100% | Growth inhibition (%) S. aureus [6, 17]: 96% | A1, relative weight of fast component [7]: 29% | A2, relative weight of slow component [7]: 71% | τ1, fluorescence decay time of fast component [7]: 1.0 ns | τ2, fluorescence decay time of slow component [7]: 4.7 ns | inhibition of bacterial cell growth in the dark [11]: barely detectable inhibition | initially bound porphyrin retained after three washings [12]: 11%
